“And” between values parts separate entries of the source, which are not always exact repeats. Equal entries are not always repeated.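 Following 48 hours of exposure in 96-well plates, responses at five concentrations were used to interpolate endpoints linearly. GI50: concentration for 50% inhibition of growth. At the TGI there is no net growth.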
Columns and labels:
Assay in all cases: NCI anticancer screen, dose series, 48 h
786-0 renal = tested on: 786-0 renal
A549 NSCLC = tested on: A549 NSCLC
HCC-2998 colon = tested on: HCC-2998 colon
K-562 leukemia = tested on: K-562 leukemia
KM12 colon = tested on: KM12 colon
LOX IMVI melanoma = tested on: LOX IMVI melanoma
NCI-H226 lung = tested on: NCI-H226 lung
SF-295 CNS = tested on: SF-295 CNS
SK-OV-3 ovarian = tested on: SK-OV-3 ovarian
SR leukemia = tested on: SR leukemia

Compound	TGI (786-0 renal)	TGI (A549 NSCLC)	TGI (HCC-2998 colon)	TGI (K-562 leukemia) [µM]	TGI (KM12 colon)	TGI (LOX IMVI melanoma)	TGI (NCI-H226 lung)	TGI (SF-295 CNS)	TGI (SK-OV-3 ovarian)	GI50 (786-0 renal) [µM]	GI50 (A549 NSCLC) [µM]	GI50 (HCC-2998 colon) [µM]	GI50 (K-562 leukemia) [µM]	GI50 (KM12 colon) [µM]	GI50 (SF-295 CNS) [µM]	GI50 (SK-OV-3 ovarian) [µM]	GI50 (LOX IMVI melanoma) [µM]	GI50 (NCI-H226 lung) [µM]	GI50 (SR leukemia) [µM]	TGI (SR leukemia) [µM]
CCCCCCC(C)CC(CCCCCC)NCCOC(=O)c1ccc([N+](=O)[O-])cc1 (centres undefined)	33.7 µM and 33.5 µM	30.3 µM and 29.8 µM	42.8 µM and 9.35 µM	1.84	27.9 µM and 23.7 µM	24.7 µM and 19.5 µM	29.4 µM and 28.6 µM	25.3 µM and 31.3 µM	31.8 µM and 30.4 µM	–	–	–	–	–	–	–	–	–	–	–
CCN=C1NN=C(c2ccccc2)c2cc(Cl)ccc2N1	34.1 µM	> 100 µM	34.4 µM	> 100	31.1 µM	36.7 µM	43.3 µM	37.5 µM	68.7 µM	–	–	–	–	–	–	–	–	–	–	–
COc1ccc(-c2ccc(/C=N/n3cn[nH]c3=S)o2)c([N+](=O)[O-])c1	> 100 µM	> 100 µM	> 100 µM	36.9	> 100 µM	–	–	> 100 µM	> 100 µM	66.2	36.2	38.9	16.9	27.2	36	45.5	–	–	–	–
CCCOc1ccc(/C=C\c2cc(OC)c(OC)c(OC)c2)cc1	> 100 µM	> 100 µM	–	> 100	89.5 µM	> 100 µM	> 100 µM	> 100 µM	–	–	–	–	–	–	–	–	–	–	–	–
CCOC(=O)/C(C#N)=C(O)/C(=C/c1ccccc1Cl)NC(=O)c1ccccc1	> 100 µM	> 100 µM	> 100 µM	> 100	> 100 µM	–	> 100 µM	> 100 µM	> 100 µM	–	–	–	–	–	–	–	–	–	–	–
O=S(=O)(O)C(F)(F)C(F)(F)C(F)(F)C(F)(F)F	> 100 µM	> 100 µM	> 100 µM	> 100	> 100 µM	> 100 µM	–	> 100 µM	> 100 µM	–	–	–	–	–	–	–	–	–	–	–
Clc1ccc(C2=Nc3ccccc3SC(c3ccc(Cl)c(Cl)c3)C2)c(Cl)c1 (centres undefined)	27.6 µM	43.6 µM	27.8 µM	22.3	24.2 µM	21.6 µM	37.4 µM	17 µM	52.1 µM	–	–	–	–	–	–	–	–	–	–	–
COc1ccc2[nH]c3c(cnn4cnnc34)c2c1	> 100 µM	> 100 µM	> 100 µM	> 100	> 100 µM	> 100 µM	–	> 100 µM	> 100 µM	–	–	–	–	–	–	–	–	–	–	–
CC1(C)CCSC(/C=C/c2ccccc2)=N1	25.6 µM	> 100 µM	–	> 100	26.1 µM	27.8 µM	–	40.7 µM	> 100 µM	–	–	–	–	–	–	–	–	–	–	–
Clc1nc(Cl)c2ncn(C/C=C\Cn3cnc4c(Cl)nc(Cl)nc43)c2n1	6.88 µM	39.4 µM	3.45 µM	> 100	3.2 µM	3.48 µM	6.23 µM	3.06 µM	20.3 µM	2.6	3.67	1.67	3.1	1.71	1.54	7.03	1.8	2.53	–	–
c1ccc(-c2nc(Nc3ccc(-c4nc5ccccc5[nH]4)cc3)nc(N3CCOCC3)n2)cc1	1.25 µM	4.01 µM	–	0.959	3.19 µM	–	4.58 µM	2.84 µM	4.23 µM	0.257	1.95	–	0.295	1.62	1.25	2.11	–	2.4	0.125	0.555
O=c1c2cc(Br)ccc2oc2ccc(Br)cc12	> 100 µM	> 100 µM	> 100 µM	> 100	> 100 µM	–	> 100 µM	> 100 µM	–	–	–	–	–	–	–	–	–	–	–	–
O=C(CC(=O)Nc1ccc(Cl)cc1)NNCC(=O)Nc1nc(-c2ccccc2)cs1	> 100 µM	> 100 µM	> 100 µM	> 100	> 100 µM	> 100 µM	> 100 µM	> 100 µM	> 100 µM	–	–	–	–	–	–	–	–	–	–	–
CC1CCC2(OC1)OC1CC3C4CC=C5CC(OC6OC(CO)C(OC7OC(C)C(OC8OC(C)C(O)C(O)C8O)C(O)C7O)C(O)C6OC6OC(C)C(O)C(O)C6O)CCC5(C)C4CCC3(C)C1C2C (centres undefined)	2.29 µM	1.39 µM	1.37 µM	–	1.43 µM	0.733 µM	2.86 µM	1.59 µM	2.31 µM	–	–	–	–	–	–	–	–	–	–	–
COC(=O)c1nc(-c2ccc(Cl)c(Cl)c2)nc2ccccc12	47.8 µM	> 100 µM	> 100 µM	> 100	> 100 µM	> 100 µM	78.1 µM	> 31.1 µM	31.2 µM	–	–	–	–	–	–	–	–	–	–	–
O=C(Oc1ccccc1)c1cc(O)c(O)c(O)c1	50 µM	> 100 µM	44.3 µM	70.9	> 100 µM	> 100 µM	> 100 µM	83.7 µM	> 100 µM	11.2	9.64	13.5	5.78	11.5	17.9	9.22	8.97	12.9	–	–

— PubChem BioAssay (NCI)
